The subject of the data set is CCRIS mutagenicity, Ames/micronucleus/aberration tests. Briefly: CCRIS mutagenicity studies.
Where [1] appears, read: Test System: AMES SALMONELLA TYPHIMURIUM, Strain/Indicator: TA97, Metabolic Activation: NONE, Method: PREINCUBATION
Setting [2] is: Test System: AMES SALMONELLA TYPHIMURIUM, Strain/Indicator: TA100, Metabolic Activation: NONE, Method: STANDARD PLATE.
Where [3] appears, read: Test System: AMES SALMONELLA TYPHIMURIUM, Strain/Indicator: TA100, Metabolic Activation: RAT, LIVER, S-9, AROCLOR 1254, Method: STANDARD PLATE.
Where [4] appears, read: Test System: AMES SALMONELLA TYPHIMURIUM, Strain/Indicator: TA102, Metabolic Activation: NONE, Method: STANDARD PLATE.

The structures appear in SMILES notation. Active and inactive are the calls of the source. No rule for the calls is given here.

On to `CCCC(=O)OC1CCCCC1`, for which the mutagenic call by setting is: under setting [1], “inactive; negative”; (Test System: AMES SALMONELLA TYPHIMURIUM, Strain/Indicator: TA97, Metabolic Activation: RAT, LIVER, S-9, AROCLOR 1254, Method: PREINCUBATION) “inactive; negative”; (Test System: AMES SALMONELLA TYPHIMURIUM, Strain/Indicator: TA102, Metabolic Activation: NONE, Method: PREINCUBATION) “inactive; negative”; (Test System: AMES SALMONELLA TYPHIMURIUM, Strain/Indicator: TA102, Metabolic Activation: RAT, LIVER, S-9, AROCLOR 1254, Method: PREINCUBATION) “inactive; negative”.
Turning to `CC(=O)N1CCC[C@H]1C(=O)N(CC(=O)O)N=O`, the mutagenic call by setting is: (Test System: AMES SALMONELLA TYPHIMURIUM, Strain/Indicator: TA98, Metabolic Activation: NONE, Method: STANDARD PLATE) “inactive; negative”; (Test System: AMES SALMONELLA TYPHIMURIUM, Strain/Indicator: TA98, Metabolic Activation: RAT, LIVER, S-9, AROCLOR 1254, Method: STANDARD PLATE) “inactive; negative”; (Test System: AMES SALMONELLA TYPHIMURIUM, Strain/Indicator: TA100, Metabolic Activation: HOST MEDIATED, Method: STANDARD PLATE) “active; positive”; under setting [2], “active; positive”; under setting [3], “active; positive”; under setting [4], “active; positive”. The mutagenic call (Test System: AMES SALMONELLA TYPHIMURIUM, Strain/Indicator: TA102, Metabolic Activation: RAT, LIVER, S-9, AROCLOR 1254, Method: STANDARD PLATE) was “active; positive”; the mutagenic call (Test System: AMES SALMONELLA TYPHIMURIUM, Strain/Indicator: TA1535, Metabolic Activation: NONE, Method: STANDARD PLATE) is “active; positive”; the mutagenic call (Test System: AMES SALMONELLA TYPHIMURIUM, Strain/Indicator: TA1535, Metabolic Activation: RAT, LIVER, S-9, AROCLOR 1254, Method: STANDARD PLATE) was “active; positive”; the mutagenic call (Test System: AMES SALMONELLA TYPHIMURIUM, Strain/Indicator: TA1537, Metabolic Activation: NONE, Method: STANDARD PLATE) was “inactive; negative”; the mutagenic call (Test System: AMES SALMONELLA TYPHIMURIUM, Strain/Indicator: TA1537, Metabolic Activation: RAT, LIVER, S-9, AROCLOR 1254, Method: STANDARD PLATE) is “inactive; negative”; the mutagenic call (Test System: AMES SALMONELLA TYPHIMURIUM, Strain/Indicator: TA1538, Metabolic Activation: NONE, Method: STANDARD PLATE) was “inactive; negative”. The mutagenic call reads like this: (Test System: AMES SALMONELLA TYPHIMURIUM, Strain/Indicator: TA1538, Metabolic Activation: RAT, LIVER, S-9, AROCLOR 1254, Method: STANDARD PLATE) “inactive; negative”; (Test System: CHO/HGPRT, Strain/Indicator: CHO-K1-BH4, Metabolic Activation: NONE) “active; positive”.
On to `COc1ccc(C(=O)ON(OCc2ccccc2)C(=O)c2ccccc2)cc1`, for which the mutagenic call under setting [2] is “active; positive” and the mutagenic call (Test System: AMES SALMONELLA TYPHIMURIUM, Strain/Indicator: TA100, Metabolic Activation: RAT, S-9, AROCLOR, Method: STANDARD PLATE) is “active; positive”.
Turning to `Cc1cccc2c1ccc1cc(C(C)C)ccc12`, the mutagenic call was “inactive; negative” under setting [2] and “inactive; negative” under setting [3].
As to `Cc1c(C)c2c(Cl)c3ccccc3nc2c2ccccc12`, the mutagenic call reads like this: under setting [1], “active; positive”; (Test System: AMES SALMONELLA TYPHIMURIUM, Strain/Indicator: TA97, Metabolic Activation: NONE, Method: STANDARD PLATE) “active; positive”; (Test System: AMES SALMONELLA TYPHIMURIUM, Strain/Indicator: TA98, Metabolic Activation: NONE, Method: PREINCUBATION) “active; positive”; (Test System: AMES SALMONELLA TYPHIMURIUM, Strain/Indicator: TA1537, Metabolic Activation: NONE, Method: PREINCUBATION) “active; positive”.
Regarding `Fc1c(F)c(F)c2ncccc2c1F`, the mutagenic call (Test System: AMES SALMONELLA TYPHIMURIUM, Strain/Indicator: TA100, Metabolic Activation: RAT LIVER S-9, PHENOBARBITAL AND 5,6-BENZOFLAVONE, Method: PREINCUBATION) is “active; positive”.
Turning to `COCc1ccc([N+]#N)cc1`, the mutagenic call is “active; positive” under setting [4] and “active; positive” (Test System: CHINESE HAMSTER V-79, Strain/Indicator: V-79/6-THIOGUANINE, Metabolic Activation: NONE).
With `[Cl][Pb][Cl]`, the mutagenic call runs as follows: (End Point: IN VITRO MICRONUCLEUS, Test System: HAMSTER V79 CELLS, Metabolic Activation: NONE) “active; positive (aneugenic above 1.1 um)”; (Test System: CHINESE HAMSTER OVARY, Strain/Indicator: CHO-AS52/6-THIOGUANINE, Metabolic Activation: NONE) “active; positive”; (Test System: CHINESE HAMSTER V-79, Strain/Indicator: SP5 V-79 (HPRT)/6-THIOGUANINE, Metabolic Activation: NONE, Method: STANDARD PLATE) “inactive; negative”; (Test System: CHINESE HAMSTER V-79, Strain/Indicator: SPD8 V-79 (HPRT)/6-THIOGUANINE, Metabolic Activation: NONE, Method: STANDARD PLATE) “inactive; negative”.
With `COC(=O)c1cc(Oc2ccc(Cl)cc2Cl)ccc1[N+](=O)[O-]`, the mutagenic call was “inactive; negative” (Test System: AMES SALMONELLA TYPHIMURIUM, Strain/Indicator: YG1021, Metabolic Activation: NONE, Method: PREINCUBATION); “inactive; negative” (Test System: AMES SALMONELLA TYPHIMURIUM, Strain/Indicator: YG1021, Metabolic Activation: RAT, LIVER, S-9, PCB, Method: PREINCUBATION); “inactive; negative” (Test System: AMES SALMONELLA TYPHIMURIUM, Strain/Indicator: YG1026, Metabolic Activation: NONE, Method: PREINCUBATION); “active; positive” (Test System: AMES SALMONELLA TYPHIMURIUM, Strain/Indicator: YG1026, Metabolic Activation: RAT, LIVER, S-9, PCB, Method: PREINCUBATION).
Consider `CCN(CCCCO)N=O`, for which the mutagenic call (Test System: AMES SALMONELLA TYPHIMURIUM, Strain/Indicator: TA1535, Metabolic Activation: RAT, LIVER, S-9, KC500 OR PHENOBARBITAL, Method: LIQUID SUSPENSION) is “active; positive”.

The record behind these values is PubChem BioAssay AID1259407 (Chemical Carcinogenesis Research Information System (CCRIS), 2018).
